Results: paper PMC11939078, “TAK-994 mechanistic investigation into drug-induced liver injury” (Toxicological Sciences, 2025)
Read-outs that look alike come from different tables or passages of the source.

Columns and labels:
[1] = system: human liver microtissues + FFA; assay: Hepatotoxicity in steatosis liver model (free fatty acids); format: cell-based; settings: Homo sapiens, 336 h; free fatty acids added to medium; read-out: IC50, co-culture (14 days) + FFA (Fig. 3A)
Experimental: Mono and co-culture model cells were exposed to TAK-994 (0.1, 0.3, 1, 3.16, 10, 31.6, or 100 μM in 0.5% DMSO) for 14 days (TAK-994 administered on Days 0, 5, and 9). The cell culture medium was supplemented with free fatty acids of 100 μM of Oleic acid and 66 μM of Palmitic acid. Six replicates were tested for each condition. The vehicle control was 0.5% DMSO, and the positive control was chlorpromazine (0.1, 0.3, 1, 3.16, 10, 31.6, or 100 μM in DMSO). Cellular ATP content was measured in the cell lysate on Day 14 of treatment. LDH release was measured in the cell supernatant on Days 5, 9, and 14 and normalized to lysed controls. Cellular triglyceride content was measured in the microtissues on Day 14.
(§1) Intracellular ATP content in model lysates was measured with the CellTiter-Glo® 2.0 Cell Viability Assay (Catalogue No. G9243, Promega). The Bioluminescent LDH Release Toxicity Assay Kit (Catalogue No. J2380, Promega) was used to assess extracellular LDH release and normalized to lysed controls. ATP, LDH, GSH, and triglycerides were measured according to internal technical operating procedures.

[2] = system: Hepatocyte spheroids; assay: Hepatocyte spheroid (monoculture, no nonparenchymal cells) cytotoxicity, cellular ATP; format: cell-based, human; settings: Homo sapiens, Hepatocyte; cellular ATP; read-out: IC50, hepatocyte spheroids (Fig. 2B)
Experimental: (§2) Toxicology of TAK-994 was assessed using lnSphero’s 3D lnSight Human Liver models, based on N-acetyl-L-cysteine causality assay, glutathione depletion assay, and lipopolysaccharide (LPS)-sensitization assay. Hepatotoxicity was assessed in 7- and 14-day mono and co-culture models, in which cells were exposed to TAK-994 (0.1, 0.3, 1, 3.16, 10, 31.6, or 100 μM) […].
(§3) The test system was Human 3D InSight Liver Models, production ID hLiMT_589, cryopreserved primary human hepatocytes (Lot IPDH_18; single donor) in monoculture or in co-culture with cryopreserved primary human nonparenchymal cells (Lot IPHN_17; single donor). Human liver microtissues are composed of roughly 1000 hepatocytes and 1000 non-parenchymal live cells. Non-parenchymal liver cell fractions are expected to be composed of Kupffer cells and liver endothelial cells however, these were not identified.
(§4) Mono and co-culture model cells were exposed to TAK-994 (0.1, 0.3, 1, 3.16, 10, 31.6, or 100 μM in 0.5% DMSO) for 7 days (TAK-994 administered on Days 0 and 4) or 14 days (TAK-994 administered on Days 0, 5, and 9). Six replicates were tested for each condition. The vehicle control was 0.5% DMSO, and the positive control was chlorpromazine (0.1, 0.3, 1, 3.16, 10, 31.6, or 100 μM in DMSO). Cellular ATP content was measured in the cell lysate on Days 7 or 14 of treatment. LDH release was measured in the cell supernatant on Days 4 and 7 or on Days 5, 9, and 14 and normalized to lysed controls.
as §1

[3] = system: human liver microtissues; assay: Human liver microtissue (co-culture) cytotoxicity, cellular ATP; format: cell-based; settings: for detection of hepatotoxicity by HepG2 72-h / human liver microtissue assays: retrospective application
Experimental: as §2, §3
The culture medium was 3D InSight Human Liver Maintenance Medium TOX (Catalogue No. CS-07-001, InSphero). The treated cells in 96-well Akura™ plates were incubated in a humidified cell culture incubator (37°C, 5% CO2).
as §4, §1

[4] = HepG2 Glu/Gal 24-h cytotoxicity (mitochondrial toxicity); format: cell-based, human; settings: human, HepG2 cells
Experimental: (§5) Cytotoxicity of TAK-994 was evaluated in glucose or galactose medium after 24 h and in glucose medium after 72 h in HepG2 cells, with cryopreserved HepG2 cells thawed and seeded onto assay plates at 5,000 cells/well in glucose or galactose medium for the 24-h assay and at 2,500 cells/well in glucose medium for the 72-h assay. After ∼24 h of incubation at 37 °C in 5% CO2, the cells were incubated with test solutions under the same conditions for 24 h for the plate with 5,000 cells/well or 72 h for the plate with 2,500 cells/well. Cytotoxicity of TAK-994 was also assessed using HepG2 cells with CYP3A4 overexpression using a lentivirus vector. HepG2/CYP3A4 cells were incubated in media containing TAK-994 (0.09 to 200 μM), positive control aflatoxin B1 (0.04 to 80 μM), or 1.0% DMSO (negative control). In both cytotoxicity assays, adenosine triphosphate (ATP) content was assessed after incubation using a commercial luminescence assay (CellTiter-Glo; Promega Co., Ltd, WI, United States).
HepG2 cells (American Type Culture Collection [ATCC, VA, USA]) were acclimated to Dulbecco's Modified Eagle Medium (DMEM; Thermo Fisher Scientific, MA, USA) with either high glucose or high galactose and containing 10% FBS for 1 week then cryopreserved. […] After the incubation, CellTiter-Glo® (Promega Co., Ltd., WI, USA) was added to the assay plates, cells were incubated for 30 minutes, and luminescence was recorded to measure the ATP content using an EnVision plate reader (PerkinElmer Co., Ltd., MA, USA). The test compound TAK-994 was evaluated at concentrations of 0.046, 0.14, 0.41, 1.2, 3.7, 11, 33, and 100 μM. Positive controls rotenone and staurosporine were purchased from FUJIFILM Wako Pure Chemical Corporation (Osaka, Japan) and evaluated at concentrations of 0.046, 0.14, 0.41, 1.2, 3.7, 11, 33, and 100 μM in DMSO (rotenone) or 0.0046, 0.014, 0.041, 0.12, 0.37, 1.1 , 3.3, and 10 μM in DMSO (staurosporine). […]

[5] = HepG2 72-h cytotoxicity assay (glucose medium, ATP content); format: cell-based, human; settings: human, HepG2 cells
Experimental: as §5
HepG2 cells (American Type Culture Collection [ATCC, VA, USA]) were acclimated to Dulbecco's Modified Eagle Medium (DMEM; Thermo Fisher Scientific, MA, USA) with either high glucose or high galactose and containing 10% FBS for 1 week then cryopreserved. The cryopreserved HepG2 cells were thawed, cultured for 24 hours, then seeded at 5000 cells/well in glucose or galactose medium for the 24-hour assay and at 2500 cells/well in glucose medium for the 72-hour assay onto the assay plates. After approximately 24 hours of incubation at 37°C in 5% CO2, the cells were incubated with test solutions under the same conditions for 24 hours for the plate with 5000 cells/well or 72 hours for the plate with 2500 cells/well. After the incubation, CellTiter-Glo® (Promega Co., Ltd., WI, USA) was added to the assay plates, cells were incubated for 30 minutes, and luminescence was recorded to measure the ATP content using an EnVision plate reader (PerkinElmer Co., Ltd., MA, USA). The test compound TAK-994 was evaluated at concentrations of 0.046, 0.14, 0.41, 1.2, 3.7, 11, 33, and 100 μM. Positive controls rotenone and staurosporine were purchased from FUJIFILM Wako Pure Chemical Corporation (Osaka, Japan) and evaluated at concentrations of 0.046, 0.14, 0.41, 1.2, 3.7, 11, 33, and 100 μM in DMSO (rotenone) or 0.0046, 0.014, 0.041, 0.12, 0.37, 1.1 , 3.3, and 10 μM in DMSO (staurosporine). Two experiments were conducted at each concentration.
Inhibition rate (%) = (1-mean of sample values / mean of Max values) × 100, where Max values = vehicle control.

[6] = system: human liver microtissues; assay: Glutathione depletion (BSO) assay in liver microtissues; format: cell-based
Experimental: as §2
Co-culture model cells were pretreated with BSO (150 μM in DMSO) and then exposed to TAK-994 (0.1, 0.3, 1, 3.16, 10, 31.6, or 100 μM in 0.5% DMSO) in the presence and absence of BSO for 14 days (during the treatment period, TAK-994 with or without BSO was administered on Days 0, 5, and 9). Six replicates were tested for each condition. The vehicle control was 0.5% DMSO and the positive control was acetaminophen (0.6, 1.25, 2.5, or 5 mM in Medium TOX). Cellular ATP content was measured in the cell lysate on Day 14 of treatment. LDH release was measured on Days 5, 9, and 14 in the cell supernatant. For cells administered BSO alone, cellular ATP content was also measured on Day 3 and LDH release was also determined between Days 0 to 3. LDH measurements were normalized to lysed controls. Cellular GSH content was measured by GSH-Glo™ Glutathione Assay (Promega) on Days 0, 3, and 14 in the positive control group.
as §1

[7] = system: human hepatocytes; set-up: method as in Thompson et al. 2012; settings: ref Thompson et al. 2012; cited from earlier work

Work on `CN(C)CCCN1c2ccccc2Sc2ccc(Cl)cc21` [Chlorpromazine, chlorpromazine, reference compound] yielded an IC50 [1] of 8.35 µM, an IC50 [2] of 9.26 µM and an IC50 ([3]; Homo sapiens, 336 h, without FFA, read-out: IC50, co-culture (14 days) (Fig. 3A)) of 6.16 µM. The IC50 ([3]; Homo sapiens, cellular ATP, read-out: IC50, liver microtissues (Fig. 2B)) was 7.64 µM.
For `COc1cccc([C@H]2O[C@H](CC(=O)N3CCC(CC(=O)O)CC3)C(=O)N(CC(C)(C)COC(C)=O)c3ccc(Cl)cc32)c1OC` [TAK-475], the IC50 at 24 h [4] was over 100 µM, the IC50 at 72 h [5] was over 100 µM and the IC50 ([3]; Homo sapiens, 336 h, read-out: Liver microtissue toxicity for 14 days IC50) was 58.6 µM. The “detection of hepatotoxicity by HepG2 72-h / human liver microtissue assays” value [3] was “detected”.
Work on `Cc1cc(OCCCS(C)(=O)=O)cc(C)c1-c1cccc(COc2ccc3c(c2)OC[C@H]3CC(=O)O)c1` [TAK-875] yielded an IC50 at 24 h [4] of over 100 µM, an IC50 at 72 h [5] of over 100 µM and an IC50 ([3]; read-out: Liver microtissue toxicity for 14 days IC50) of 12.7 µM. The “detection of hepatotoxicity by HepG2 72-h / human liver microtissue assays” value [3] was “detected”.
For `CC(=O)Nc1ccc(O)cc1` [acetaminophen, reference compound], the “sensitization of liver microtissues by buthionine sulfoximine depletion” value [6] was “induced liver microtissue sensitivity”.
For `Cc1c(C(=O)NN2CCCCC2)nn(-c2ccc(Cl)cc2Cl)c1-c1ccc(Cl)cc1` [rimonabant], the “CVB of marketed drugs without high risk of hepatotoxicity” value [7] is given as “elevated CVB”.
